Test results from PubChem BioAssay AID1963445 (Molecular Pharmacology Branch, DTP, NCI, 2024).

System: MCF7 complex spheroid growth, % test/control
Assay: Anticancer human tumor MCF7 cell line growth inhibition [Asc];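 note: spheroids exposed to compounds for 7 days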;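 for viability, T/C: 100% = DMSO vehicle control wells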
Settings: for IC50: curve of first compound; for viability, T/C: stronger effect = lower value
Method in brief: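 Spheroid model: tumor line + HUVEC + hMSC. Single agents and combinations; top conc. at/near clinical Cmax (10 microM if undetermined), half-log dilutions. DMSO stocks at 800-fold test concentration.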

## C=C(F)C(=O)N1CCN(c2nc(OCC3CCCN3C)nc3c2CCN(c2cccc4cccc(Cl)c24)C3)CC1CC#N (centres undefined) + CCN1C(C(=O)NC23CCC(C(=O)O)(CC2)CC3)C(c2cccc(Cl)c2F)C2(C(=O)Nc3cc(Cl)ccc32)C12CCCCC2
Second compound 0.00949 µM
  IC50: 3140 nM
Second compound 0.03 µM
  IC50: 3270 nM
Second compound 0.0949 µM
  IC50: 1180 nM
Second compound 0.3 µM
  IC50: < 31.6 nM
Second compound 0.949 µM
  IC50: < 31.6 nM
Second compound 3 µM
  IC50: < 31.6 nM
Second compound 0.00949 µM, first compound 0.0316 µM
  viability, T/C: 103%
Second compound 0.00949 µM, first compound 0.1 µM
  viability, T/C: 115%
Second compound 0.00949 µM, first compound 0.316 µM
  viability, T/C: 109%
Second compound 0.00949 µM, first compound 1 µM
  viability, T/C: 89.8%
Second compound 0.00949 µM, first compound 3.16 µM
  viability, T/C: 50.4%
Second compound 0.00949 µM, first compound 10 µM
  viability, T/C: 0.16%
Second compound 0.03 µM, first compound 0.0316 µM
  viability, T/C: 104%
Second compound 0.03 µM, first compound 0.1 µM
  viability, T/C: 77.1%
Second compound 0.03 µM, first compound 0.316 µM
  viability, T/C: 109%
Second compound 0.03 µM, first compound 1 µM
  viability, T/C: 69.3%
Second compound 0.03 µM, first compound 3.16 µM
  viability, T/C: 53.8%
Second compound 0.03 µM, first compound 10 µM
  viability, T/C: 0.23%
Second compound 0.0949 µM, first compound 0.0316 µM
  viability, T/C: 50.4%
Second compound 0.0949 µM, first compound 0.1 µM
  viability, T/C: 52.5%
Second compound 0.0949 µM, first compound 0.316 µM
  viability, T/C: 50.5%
Second compound 0.0949 µM, first compound 1 µM
  viability, T/C: 57.5%
Second compound 0.0949 µM, first compound 3.16 µM
  viability, T/C: 33.6%
Second compound 0.0949 µM, first compound 10 µM
  viability, T/C: 0.14%
Second compound 0.3 µM, first compound 0.0316 µM
  viability, T/C: 30.5%
Second compound 0.3 µM, first compound 0.1 µM
  viability, T/C: 28%
Second compound 0.3 µM, first compound 0.316 µM
  viability, T/C: 34.2%
Second compound 0.3 µM, first compound 1 µM
  viability, T/C: 34.8%
Second compound 0.3 µM, first compound 3.16 µM
  viability, T/C: 10.5%
Second compound 0.3 µM, first compound 10 µM
  viability, T/C: 0.24%
Second compound 0.949 µM, first compound 0.0316 µM
  viability, T/C: 20.6%
Second compound 0.949 µM, first compound 0.1 µM
  viability, T/C: 20.7%
Second compound 0.949 µM, first compound 0.316 µM
  viability, T/C: 28.5%
Second compound 0.949 µM, first compound 1 µM
  viability, T/C: 17.1%
Second compound 0.949 µM, first compound 3.16 µM
  viability, T/C: 2.09%
Second compound 0.949 µM, first compound 10 µM
  viability, T/C: 0.2%
Second compound 3 µM, first compound 0.0316 µM
  viability, T/C: 15.2%
Second compound 3 µM, first compound 0.1 µM
  viability, T/C: 15.4%
Second compound 3 µM, first compound 0.316 µM
  viability, T/C: 14.1%
Second compound 3 µM, first compound 1 µM
  viability, T/C: 11.8%
Second compound 3 µM, first compound 3.16 µM
  viability, T/C: 2.7%
Second compound 3 µM, first compound 10 µM
  viability, T/C: 0.44%

## CCN1CCN(Cc2ccc(Nc3ncc(F)c(-c4cc(F)c5nc(C)n(C(C)C)c5c4)n3)nc2)CC1 + CNC(C)C(=O)NC1CN(S(=O)(=O)c2cccc(S(=O)(=O)N3CCC4CCC(C(=O)NC(c5ccccc5)c5ccccc5)N4C(=O)C(NC(=O)C(C)NC)C3)c2)CCC2CCC(C(=O)NC(c3ccccc3)c3ccccc3)N2C1=O
Second compound 0.00316 µM
  IC50: < 3.16 nM
Second compound 0.01 µM
  IC50: < 3.16 nM
Second compound 0.0316 µM
  IC50: < 3.16 nM
Second compound 0.1 µM
  IC50: < 3.16 nM
Second compound 0.316 µM
  IC50: < 3.16 nM
Second compound 1 µM
  IC50: < 3.16 nM
Second compound 0.00316 µM, first compound 0.00316 µM
  viability, T/C: 30.3%
Second compound 0.00316 µM, first compound 0.01 µM
  viability, T/C: 32.9%
Second compound 0.00316 µM, first compound 0.0316 µM
  viability, T/C: 12.9%
Second compound 0.00316 µM, first compound 0.1 µM
  viability, T/C: 20.2%
Second compound 0.00316 µM, first compound 0.316 µM
  viability, T/C: 12.3%
Second compound 0.00316 µM, first compound 1 µM
  viability, T/C: 14.1%
Second compound 0.01 µM, first compound 0.00316 µM
  viability, T/C: 17.1%
Second compound 0.01 µM, first compound 0.01 µM
  viability, T/C: 10.8%
Second compound 0.01 µM, first compound 0.0316 µM
  viability, T/C: 10.1%
Second compound 0.01 µM, first compound 0.1 µM
  viability, T/C: 10.1%
Second compound 0.01 µM, first compound 0.316 µM
  viability, T/C: 10.5%
Second compound 0.01 µM, first compound 1 µM
  viability, T/C: 11.8%
Second compound 0.0316 µM, first compound 0.00316 µM
  viability, T/C: 14.4%
Second compound 0.0316 µM, first compound 0.01 µM
  viability, T/C: 9.49%
Second compound 0.0316 µM, first compound 0.0316 µM
  viability, T/C: 9.67%
Second compound 0.0316 µM, first compound 0.1 µM
  viability, T/C: 11.8%
Second compound 0.0316 µM, first compound 0.316 µM
  viability, T/C: 11.1%
Second compound 0.0316 µM, first compound 1 µM
  viability, T/C: 10.6%
Second compound 0.1 µM, first compound 0.00316 µM
  viability, T/C: 12.2%
Second compound 0.1 µM, first compound 0.01 µM
  viability, T/C: 10.9%
Second compound 0.1 µM, first compound 0.0316 µM
  viability, T/C: 10.2%
Second compound 0.1 µM, first compound 0.1 µM
  viability, T/C: 8.76%
Second compound 0.1 µM, first compound 0.316 µM
  viability, T/C: 11.4%
Second compound 0.1 µM, first compound 1 µM
  viability, T/C: 10%
Second compound 0.316 µM, first compound 0.00316 µM
  viability, T/C: 13.4%
Second compound 0.316 µM, first compound 0.01 µM
  viability, T/C: 13.1%
Second compound 0.316 µM, first compound 0.0316 µM
  viability, T/C: 13.2%
Second compound 0.316 µM, first compound 0.1 µM
  viability, T/C: 11.2%
Second compound 0.316 µM, first compound 0.316 µM
  viability, T/C: 8.8%
Second compound 0.316 µM, first compound 1 µM
  viability, T/C: 8.66%
Second compound 1 µM, first compound 0.00316 µM
  viability, T/C: 10.8%
Second compound 1 µM, first compound 0.01 µM
  viability, T/C: 12%
Second compound 1 µM, first compound 0.0316 µM
  viability, T/C: 11.3%
Second compound 1 µM, first compound 0.1 µM
  viability, T/C: 10.8%
Second compound 1 µM, first compound 0.316 µM
  viability, T/C: 10.7%
Second compound 1 µM, first compound 1 µM
  viability, T/C: 8.18%
